Test [1] deals with Th2 cells. The test is described as follows: Th2 cell activation in inflammation-induced mouse model (IL-4 flow cytometry). Format: in vivo. As to conditions: DBA/1J mice, Freund's complete adjuvant + bovine type2 collagen; oral 10 mg/kg daily 20 days; thymus cells; vs vehicle group. Here is the method: (§1) Equal volume mixtures of Freund's complete adjuvant and Bovine type2 collagen were administered to 6-week-old male DBA/1J mice (Japan SLC Inc.) at 0.1 mL (day 0 of the study). 21 days later, DBA/1J mice were again injected with 0.1 mL of the above mixture for secondary immunization. After the second immunization, mice were orally treated with 10 mg/kg of mangiferin 8a and 10 mg/kg of norathyriol daily for 20 days. 20 days later, thymus glands were harvested from mice and stained with anti-CD4 and anti-IL-4 antibodies, which are Th2 cell markers, and expression of IL-4 (CD4 positive) was measured using BD LSRFortessa.

Test [2] concerns Monocytes collected from mice. The test is described as follows: LPS-induced macrophage activation (CD11b/F4/80 flow cytometry). Format: cell-based, mouse. Particulars: 10 μM compound, 10 μg/mL LPS, 10 days; control 6.38, LPS only 26.8. Here is the method:
Monocytes collected from mice were cultured in RPMI 1640 medium for 1 day. Then, 10 μM mangiferin 8a and 10 μM norathyriol were added to monocytes, and after 1 day of culture, 10 μg/mL of LPS was added, followed by 10 days of culture. After 10 days of culture, cells were stained with anti-CD11b and anti-F4/80 antibodies, markers of macrophages, and expression of CD11b and F4/80 was measured using BD LSRFortessa. Note that CD11b positive and F4/80 positive indicate activated macrophages.

Test [3] deals with mouse macrophages. As to the kind of experiment: LPS-stimulated macrophage proliferation (trypan blue). As to conditions: 10 μM compound, 10 μg/mL LPS 3 days, control 10.65×10^4, LPS 19×10^4. Format: cell-based. How it is done:
The inhibitory effect of the compound on macrophage cell proliferation was examined using mouse macrophages.
Macrophages collected from mice were cultured in RPMI 1640 medium for 1 day. Then, 10 μM mangiferin 8a and 10 μM norathyriol were added to macrophages, and after 1 day of culture, 10 μg/mL of lipopolysaccharide (LPS) was added to each for 3 days. After 3 days of incubation, the number of viable cells was determined by the trypan blue dye method. Note that LPS was used as an allergic inflammation inducer.
Referring to FIG. 49, the horizontal axis indicates treatment with each compound and the vertical axis indicates cell count (1×10^4 cells/mL). Only 0.5% DMSO in PBS, which was used to dissolve the reagent (compound), was added as control. The LPS group is referred to as the LPS group with 10 μg/mL LPS, the mangiferin 8a group is referred to as the mangiferin 8a group with LPS and mangiferin 8a, and the norathyriol group is referred to as the norathyriol group with LPS and norathyriol.

Test [4] has as its system Treg cells. As to the kind of experiment: Treg cell activation in inflammation-induced mouse model (Foxp3 flow cytometry). Particulars: DBA/1J mice, Freund's complete adjuvant + bovine type2 collagen; oral 10 mg/kg daily 20 days; thymus cells; vs vehicle group. The format is in vivo. How it is done: as §1, with “anti-CD4, anti-CD25” for “anti-CD4”, “anti-Foxp3” for “anti-IL-4”, “Treg” for “Th2”, “Foxp3” for “IL-4”, “(CD4 positive and CD25” for “(CD4”
In general terms: Flow cytometry measures light scatter and fluorescence of single cells or particles in a stream.

The subject of test [5] is TNFα. As to the kind of experiment: LPS-stimulated TNFα secretion in macrophages (ELISA). Format: cell-based, mouse. Particulars: 10 μM compound, 10 μg/mL LPS 2 days, control 24.11, LPS 421.13. Here is the method: Mouse macrophages were used to examine the inhibition of compounds on TNFα secretion in LPS stimulation.
Mouse macrophages were cultured in RPMI 1640 medium for 1 day. Then, 10 μM mangiferin 8a and 10 μM norathyriol were added to macrophages, and after 1 day of culture, 10 μg/mL of LPS was added to each, followed by 2 days of culture.
Thus, the samples were divided into “control” with no treatment, “10 μg/mL LPS+10 μM mangiferin 8a” to which 10 μg/mL LPS and 10 μM mangiferin 8a were added, and “10 μg/mL LPS+10 μM norathyriol” to which 10 μg/mL LPS and 10 μM norathyriol were added and only 10 μg/mL LPS was added (“[…] LPS”).
(§2) After these samples were incubated for 2 days, the culture supernatant was collected and TNFα secretion was measured by enzyme-linked immunosorbent assay (ELISA). The mouse TNFα ELISA kit (R&D) was used for this measurement.

Test [6] has as its target T1, NIK (Mus musculus, UniProt Q9WUL6).
T1 construct: Proteins were extracted with cell lysate and used as samples; endogenous in cells; host or cells: primary splenic B cells from 6-week-old male Balb/c mice
As to the kind of experiment: LPS-induced NIK activation in B cells (Western blotting, phospho-NIK). The format is cell-based. Particulars: 10 μM compound 23 h, then 10 μg/mL LPS 1 h. Here is the method:
Spleens were harvested from 6-week-old male Balb/c mice and B cells were isolated. After isolation, the cells were seeded in […] dish and cultured in RPMI 1640 medium for 1 day and used as control. In addition, B cells were seeded into 100 mm^2 dish, and after 1 day of culture, 10 μg/mL LPS was added and cultured for 1 h. Furthermore, B cells were seeded in […] dish, and after 1 day of culture, 10 μM mangiferin 8a and 10 μM norathyriol were added to B cells, and after 23 h, 10 μg/mL LPS was added to each, and the cells were incubated for 1 h. All were incubated at 37° C. and 5% CO2.
Proteins were extracted with cell lysate and used as samples. Each sample was transferred to a PVDF membrane after SDSPAGE and assayed with anti-phospho-NIK, anti-NIK, anti-NF-κB p52, anti-NF-κB p65 and anti-Lamin antibodies.
The antibody species is indicated in the vertical direction. Specifically, in the case of anti-phospho-NIK antibody (described as “Phospho-NIK”), anti-NIK antibody (described as “NIK”), anti-NF-κB p52 antibody (described as “NF-κB p52 nuclear”), anti-NF-κB p65 antibody (described as “NF-κB p65 nuclear”) and anti-Lamin antibody (described as “Lamin”).
On the technique in general: In western blotting, separated proteins are transferred to a membrane and probed.

Test [7] deals with TNFα. The test is described as follows: LPS-stimulated TNFα secretion in B cells (ELISA). Format: cell-based, mouse. As to conditions: 10 μM compound, 10 μg/mL LPS 2 days, control 15.13, LPS 296.31. How it is done:
Mouse B cells were used to examine the inhibition of compounds on TNFα secretion in LPS stimulation.
Mouse B cells were cultured in RPMI 1640 medium for 1 day. Then, 10 μM mangiferin 8a and 10 μM norathyriol were added to B cells, and after 1 day of culture, 10 μg/mL of LPS was added to each, followed by 2 days of culture.
Thus, the samples were divided into “control” with no treatment, “10 μg/mL LPS+10 μM mangiferin 8a” to which 10 μg/mL LPS and 10 μM mangiferin 8a were added, and “10 μg/mL LPS+10 μM norathyriol” to which 10 μg/mL LPS and 10 μM norathyriol were added and only 10 μg/mL LPS was added (“10 μg/L LPS”).
as §2
For orientation: An ELISA detects its analyte on a solid surface through an enzyme-linked reagent.

T1 sequence (Q9WUL6 whole entry): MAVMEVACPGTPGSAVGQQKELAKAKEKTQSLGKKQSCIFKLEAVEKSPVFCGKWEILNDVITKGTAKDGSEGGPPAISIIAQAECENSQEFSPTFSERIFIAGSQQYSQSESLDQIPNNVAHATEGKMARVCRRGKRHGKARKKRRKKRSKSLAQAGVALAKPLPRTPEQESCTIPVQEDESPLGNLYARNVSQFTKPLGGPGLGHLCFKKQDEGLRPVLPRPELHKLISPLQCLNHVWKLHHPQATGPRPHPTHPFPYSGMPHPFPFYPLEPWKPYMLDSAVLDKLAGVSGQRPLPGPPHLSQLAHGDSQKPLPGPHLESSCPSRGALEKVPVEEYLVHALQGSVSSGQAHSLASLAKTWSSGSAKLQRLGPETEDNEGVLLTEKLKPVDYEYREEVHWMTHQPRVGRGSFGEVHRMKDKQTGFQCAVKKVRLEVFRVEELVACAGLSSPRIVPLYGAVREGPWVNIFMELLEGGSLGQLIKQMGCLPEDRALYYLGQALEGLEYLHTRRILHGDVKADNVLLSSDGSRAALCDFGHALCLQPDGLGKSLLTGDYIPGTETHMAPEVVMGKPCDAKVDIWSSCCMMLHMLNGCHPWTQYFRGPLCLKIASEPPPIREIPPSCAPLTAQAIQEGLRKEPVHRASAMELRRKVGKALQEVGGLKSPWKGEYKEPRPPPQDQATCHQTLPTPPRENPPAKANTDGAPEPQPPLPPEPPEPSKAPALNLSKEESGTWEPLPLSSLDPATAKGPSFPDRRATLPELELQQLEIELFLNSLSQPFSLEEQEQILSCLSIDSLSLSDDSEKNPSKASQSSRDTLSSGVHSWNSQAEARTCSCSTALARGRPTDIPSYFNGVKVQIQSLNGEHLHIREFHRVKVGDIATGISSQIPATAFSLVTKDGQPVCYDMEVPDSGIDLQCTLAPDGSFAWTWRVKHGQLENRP

Consider `O=c1c2cc(O)c(O)cc2oc2cc(O)cc(O)c12` [norathyriol, 1,3,6,7-tetrahydroxyxanthone], for which the “IL-4 expression (CD4 positive)” value in test [1] was “markedly reduced”. Further, the “CD11b positive and F4/80 positive population (activated macrophages)” value in test [2] was determined as 11.6%. Moreover, in test [3], the “number of viable cells (cell count)” value is 7.5×10^4 cells/mL. Moreover, the “Foxp3 expression (CD4 positive and CD25 positive)” value in test [4] is reported as “slightly increased”. The figures for the TNFα secretion in test [5] and in test [7] were 68.13 pg/mL and 64.13 pg/mL, respectively. The “phospho-NIK band (immunoblotting)” value in test [6] is “fainter”.
